Assay results as given in patent EP1174152B1, “Inclusion complex of an opioid peptide with cyclodextrin” (COUNCIL OF SCIENTIFIC AND INDUSTRIAL RESEARCH, priority 2000, dated 2002).

What was measured:
rats = test: 30 days toxicity study by subcutaneous route in rat; assay type: in vivo; conditions: once daily for 30 consecutive days, 7.5, 15.0 and 30.0 mg/kg
Protocol: (§1) 30 days toxicity study of L-Tyrosyl-D-alanyl-glycyl-N-methylphenylanyl-glycyl-isopropylamide in rat and rhesus monkey by subcutaneous route.
(§2) Compound L-Tyrosyl-D-alanyl-glycyl-N-methylphenylalanyl-glycyl-isopropylamide dissolved in saline was given daily by subcutaneous route to groups of rats (n=10 males and 10 females in each group) and rhesus monkeys (n=2 males and 2 females in each group) once daily for 30 consecutive days. The dose levels used in rats were 0 0, 7.5, 15.0 and 30.0 mg/kg and in monkeys 0.0, 3.75, 7.5 and 15 mg/kg. Dose levels were selected on the basis of rat ED of 3.0 mg/kg and extrapolation thereof in the monkey. […]
(§3) Body weights (weekly in rats, initial and day 30 in monkeys), daily food (rat and monkeys) and water (rat only) consumption and parameters of hematology, urinalysis and blood biochemistry of the animals was recorded All the animals were sacrificed at the end of 30 days Necropsy was performed and histophathological examination of all the important organs and tissues were done. […]
(§4) During necropsy examination of the external surface of the body, all orifices, and the cranial thoracic and abdominal cavities and their contents was performed. […] Liver, kidneys, adrenals, brain heart lungs, spleen and gonads were weighed, and their rdative weights were also calculated. […]

rhesus monkeys = test: 30 days toxicity study by subcutaneous route in rhesus monkey; assay type: in vivo; conditions: once daily for 30 consecutive days, 3.75, 7.5 and 15 mg/kg
Protocol: as §1, §2, §3, §4

leucine amino peptidase = conditions: enzyme hydrolysis with leucine amino peptidase; cited from earlier work

Compound	30-day toxicity study outcome (rats)	30-day toxicity study outcome (rhesus monkeys)	half life (leucine amino peptidase)
CC(C)NC(=O)CNC(=O)[C@H](Cc1ccccc1)N(C)C(=O)CNC(=O)[C@@H](C)NC(=O)[C@@H](N)Cc1ccc(O)cc1 [L-Tyrosyl-D-alanyl-glycyl-N-methylphenylalanyl-glycyl-isopropylamide]	found safe	found safe	–
Leu-enkephalin	–	–	45 min
